Measured values: BigSolDB 2.1

O=P1(c2cc(O)ccc2O)Oc2ccccc2-c2ccccc21 (configuration not stated)
Settings	solubility (mole fraction)
in 2-ethoxyethanol, 293.15 K	0.000896
in 2-ethoxyethanol, 298.15 K	0.0012
in 2-ethoxyethanol, 302.98 K	0.00157
in 2-ethoxyethanol, 308 K	0.00207
in 2-ethoxyethanol, 313 K	0.00248
in 2-ethoxyethanol, 317.8 K	0.00347
in 2-ethoxyethanol, 322.7 K	0.00439
in 2-ethoxyethanol, 327.65 K	0.00556
in 2-ethoxyethanol, 332.65 K	0.00702
in 2-ethoxyethanol, 337.6 K	0.00896
in 2-ethoxyethanol, 342.58 K	0.0109
in 2-ethoxyethanol, 347.4 K	0.0134
in 2-ethoxyethanol, 352.83 K	0.0168
in 2-ethoxyethanol, 357.7 K	0.0207
in 2-ethoxyethanol, 362.67 K	0.0249
in 2-ethoxyethanol, 367.65 K	0.0301
in acetone, 292.15 K	0.00153
in acetone, 297.15 K	0.00182
in acetone, 302.15 K	0.00226
in acetone, 307.85 K	0.00304
in acetone, 312.9 K	0.0037
in acetone, 317.65 K	0.00427
in acetone, 322.6 K	0.00551
in ethanol, 293.15 K	0.00205
in ethanol, 298.1 K	0.00224
in ethanol, 303.05 K	0.00241
in ethanol, 307.95 K	0.0027
in ethanol, 312.95 K	0.00282
in ethanol, 317.8 K	0.00309
in ethanol, 322.8 K	0.00332
in ethanol, 327.85 K	0.00352
in methanol, 293.15 K	0.00107
in methanol, 298 K	0.00128
in methanol, 302.9 K	0.0015
in methanol, 307.85 K	0.00182
in methanol, 312.84 K	0.00227
in methanol, 317.6 K	0.0026
in methanol, 322.63 K	0.00292
in water, 303 K	0.000139
in water, 307.95 K	0.000143
in water, 312.85 K	0.000151
in water, 317.6 K	0.000155
in water, 322.45 K	0.000165
in water, 327.65 K	0.000168
in water, 332.5 K	0.000175
in water, 337.55 K	0.000184
in water, 342.35 K	0.000189
